Test system: HOP-62 complex spheroids with HUVEC/MSC, viability
Experiment: Anticancer human tumor HOP-62 cell line growth inhibition [RAS];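 further: spheroids exposed to agents for seven days before readout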;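 on viability, T/C: 100% = DMSO vehicle control viability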
Conditions: for IC50: curve of first compound; for viability, T/C: stronger effect = lower value
Procedure, shortened: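 Tumour cells grown as complex spheroids with HUVEC endothelial cells and mesenchymal stem cells, treated with RAS pathway inhibitor combinations. Each agent spans half-log steps from near clinical Cmax, or 10 microM where Cmax is unknown.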

[1] = second compound 0.000949 µM, first compound 0.00316 µM
[2] = second compound 0.000949 µM, first compound 0.01 µM
[3] = second compound 0.000949 µM, first compound 0.0316 µM
[4] = second compound 0.000949 µM, first compound 0.1 µM
[5] = second compound 0.003 µM, first compound 0.00316 µM
[6] = second compound 0.003 µM, first compound 0.01 µM
[7] = second compound 0.003 µM, first compound 0.0316 µM
[8] = second compound 0.003 µM, first compound 0.1 µM
[9] = second compound 0.00949 µM, first compound 0.00316 µM
[10] = second compound 0.00949 µM, first compound 0.01 µM
[11] = second compound 0.00949 µM, first compound 0.0316 µM
[12] = second compound 0.00949 µM, first compound 0.1 µM
[13] = second compound 0.03 µM, first compound 0.00316 µM
[14] = second compound 0.03 µM, first compound 0.01 µM
[15] = second compound 0.03 µM, first compound 0.0316 µM
[16] = second compound 0.03 µM, first compound 0.1 µM
[17] = second compound 0.0949 µM, first compound 0.00316 µM
[18] = second compound 0.0949 µM, first compound 0.01 µM
[19] = second compound 0.0949 µM, first compound 0.0316 µM
[20] = second compound 0.0949 µM, first compound 0.1 µM
[21] = second compound 0.3 µM, first compound 0.00316 µM
[22] = second compound 0.3 µM, first compound 0.01 µM
[23] = second compound 0.3 µM, first compound 0.0316 µM
[24] = second compound 0.3 µM, first compound 0.1 µM
[25] = second compound 0.000949 µM, first compound 0.316 µM
[26] = second compound 0.000949 µM, first compound 1 µM
[27] = second compound 0.003 µM, first compound 0.316 µM
[28] = second compound 0.003 µM, first compound 1 µM
[29] = second compound 0.00949 µM, first compound 0.316 µM
[30] = second compound 0.00949 µM, first compound 1 µM
[31] = second compound 0.03 µM, first compound 0.316 µM
[32] = second compound 0.03 µM, first compound 1 µM
[33] = second compound 0.0949 µM, first compound 0.316 µM
[34] = second compound 0.0949 µM, first compound 1 µM
[35] = second compound 0.3 µM, first compound 0.316 µM
[36] = second compound 0.3 µM, first compound 1 µM

For `CC(C)n1nc(-c2ccc3oc(N)nc3c2)c2c(N)ncnc21` + CCn1c(-c2cc(N3CCN(C)CC3)cnc2C(C)OC)c2c3cc(ccc31)-c1csc(n1)CC(NC(=O)C1CC1C)C(=O)N1CCCC(N1)C(=O)OCC(C)(C)C2, the IC50 (second compound 0.000949 µM) was 32.8 nM, the IC50 (second compound 0.003 µM) was 15.3 nM and the IC50 (second compound 0.00949 µM) was 8.38 nM. For the same compound, the IC50 (second compound 0.03 µM) was 0.644 nM, the IC50 (second compound 0.0949 µM) was < 0.316 nM and the IC50 (second compound 0.3 µM) was < 0.316 nM. For the same compound, the viability, T/C (second compound 0.000949 µM, first compound 0.000316 µM) was 122%, the viability, T/C (second compound 0.000949 µM, first compound 0.001 µM) was 111% and the viability, T/C [1] was 71.4%. It also gave a viability, T/C [2] of 71.8%, a viability, T/C [3] of 59.5% and a viability, T/C [4] of 28.3%. The viability, T/C (second compound 0.003 µM, first compound 0.000316 µM) was 96.2%, the viability, T/C (second compound 0.003 µM, first compound 0.001 µM) was 81.7% and the viability, T/C [5] was 59%. For the same compound, the viability, T/C [6] was 65.4%, the viability, T/C [7] was 44.9% and the viability, T/C [8] was 23.2%. The viability, T/C (second compound 0.00949 µM, first compound 0.000316 µM) was 64.9%, the viability, T/C (second compound 0.00949 µM, first compound 0.001 µM) was 56.1% and the viability, T/C [9] was 58.6%. It also gave a viability, T/C [10] of 48.9%, a viability, T/C [11] of 30.7% and a viability, T/C [12] of 24%. It also gave a viability, T/C (second compound 0.03 µM, first compound 0.000316 µM) of 52.5%, a viability, T/C (second compound 0.03 µM, first compound 0.001 µM) of 48.5% and a viability, T/C [13] of 40%. It also gave a viability, T/C [14] of 32.6%, a viability, T/C [15] of 21.7% and a viability, T/C [16] of 22.1%. It also gave a viability, T/C (second compound 0.0949 µM, first compound 0.000316 µM) of 38.1%, a viability, T/C (second compound 0.0949 µM, first compound 0.001 µM) of 36.4% and a viability, T/C [17] of 35.8%. It also gave a viability, T/C [18] of 37.5%, a viability, T/C [19] of 20.6% and a viability, T/C [20] of 24.6%. For the same compound, the viability, T/C (second compound 0.3 µM, first compound 0.000316 µM) was 37.8%, the viability, T/C (second compound 0.3 µM, first compound 0.001 µM) was 35% and the viability, T/C [21] was 34.4%. It also gave a viability, T/C [22] of 27.7%, a viability, T/C [23] of 26.5% and a viability, T/C [24] of 24.8%.
`CCN1CCN(Cc2ccc(Nc3ncc(F)c(-c4cc(F)c5nc(C)n(C(C)C)c5c4)n3)nc2)CC1` + CCn1c(-c2cc(N3CCN(C)CC3)cnc2C(C)OC)c2c3cc(ccc31)-c1csc(n1)CC(NC(=O)C1CC1C)C(=O)N1CCCC(N1)C(=O)OCC(C)(C)C2 was tested, and the IC50 (second compound 0.000949 µM) was > 1000 nM, the IC50 (second compound 0.003 µM) was > 1000 nM and the IC50 (second compound 0.00949 µM) was > 1000 nM. For the same compound, the IC50 (second compound 0.03 µM) was 70.4 nM, the IC50 (second compound 0.0949 µM) was < 3.16 nM and the IC50 (second compound 0.3 µM) was < 3.16 nM. For the same compound, the viability, T/C [1] was 121%, the viability, T/C [2] was 117% and the viability, T/C [3] was 85.5%. For the same compound, the viability, T/C [4] was 109%, the viability, T/C [25] was 114% and the viability, T/C [26] was 87.8%. It also gave a viability, T/C [5] of 97.9%, a viability, T/C [6] of 81.7% and a viability, T/C [7] of 78.2%. The viability, T/C [8] was 90.4%, the viability, T/C [27] was 104% and the viability, T/C [28] was 62.6%. The viability, T/C [9] was 70.7%, the viability, T/C [10] was 57.9% and the viability, T/C [11] was 68.2%. The viability, T/C [12] was 74.3%, the viability, T/C [29] was 57.3% and the viability, T/C [30] was 50.8%. It also gave a viability, T/C [13] of 52.8%, a viability, T/C [14] of 52.4% and a viability, T/C [15] of 51.9%. For the same compound, the viability, T/C [16] was 49%, the viability, T/C [31] was 32.6% and the viability, T/C [32] was 50.4%. For the same compound, the viability, T/C [17] was 38.4%, the viability, T/C [18] was 42.8% and the viability, T/C [19] was 39.2%. The viability, T/C [20] was 32.4%, the viability, T/C [33] was 32.6% and the viability, T/C [34] was 47%. It also gave a viability, T/C [21] of 36.6%, a viability, T/C [22] of 37.1% and a viability, T/C [23] of 35.2%. The viability, T/C [24] was 33.4%, the viability, T/C [35] was 40.7% and the viability, T/C [36] was 45.3%.
`C[C@@H](NC(=O)c1ncnc(N)c1Cl)c1ncc(C(=O)Nc2cc(C(F)(F)F)c(Cl)cn2)s1` + CCn1c(-c2cc(N3CCN(C)CC3)cnc2C(C)OC)c2c3cc(ccc31)-c1csc(n1)CC(NC(=O)C1CC1C)C(=O)N1CCCC(N1)C(=O)OCC(C)(C)C2 was tested, and the IC50 (second compound 0.000949 µM) was > 10000 nM, the IC50 (second compound 0.003 µM) was > 10000 nM and the IC50 (second compound 0.00949 µM) was > 10000 nM. For the same compound, the IC50 (second compound 0.03 µM) was > 10000 nM, the IC50 (second compound 0.0949 µM) was 342 nM and the IC50 (second compound 0.3 µM) was < 31.6 nM. For the same compound, the viability, T/C [3] was 111%, the viability, T/C [4] was 119% and the viability, T/C [25] was 93.4%. For the same compound, the viability, T/C [26] was 115%, the viability, T/C (second compound 0.000949 µM, first compound 3.16 µM) was 114% and the viability, T/C (second compound 0.000949 µM, first compound 10 µM) was 74.6%. The viability, T/C [7] was 107%, the viability, T/C [8] was 101% and the viability, T/C [27] was 96.7%. For the same compound, the viability, T/C [28] was 104%, the viability, T/C (second compound 0.003 µM, first compound 3.16 µM) was 94.7% and the viability, T/C (second compound 0.003 µM, first compound 10 µM) was 60.6%. It also gave a viability, T/C [11] of 80.9%, a viability, T/C [12] of 99.5% and a viability, T/C [29] of 76.4%. The viability, T/C [30] was 83.7%, the viability, T/C (second compound 0.00949 µM, first compound 3.16 µM) was 75.9% and the viability, T/C (second compound 0.00949 µM, first compound 10 µM) was 51.3%. The viability, T/C [15] was 65.9%, the viability, T/C [16] was 56.7% and the viability, T/C [31] was 62.1%. For the same compound, the viability, T/C [32] was 66.4%, the viability, T/C (second compound 0.03 µM, first compound 3.16 µM) was 47.8% and the viability, T/C (second compound 0.03 µM, first compound 10 µM) was 57%. It also gave a viability, T/C [19] of 46.9%, a viability, T/C [20] of 56.4% and a viability, T/C [33] of 48.2%. For the same compound, the viability, T/C [34] was 54.4%, the viability, T/C (second compound 0.0949 µM, first compound 3.16 µM) was 38.6% and the viability, T/C (second compound 0.0949 µM, first compound 10 µM) was 55%. It also gave a viability, T/C [23] of 47.7%, a viability, T/C [24] of 49.6% and a viability, T/C [35] of 43.9%. The viability, T/C [36] was 41.3%, the viability, T/C (second compound 0.3 µM, first compound 3.16 µM) was 45.4% and the viability, T/C (second compound 0.3 µM, first compound 10 µM) was 47.3%.
